Experimental data taken from patent US10729700B2, “Methods and compositions of bile acids and salts for reduction of fat” (priority 2014, dated 2020).
Read-outs that look alike come from different tables or passages of the source.

Legend:
mice skin = assay: In vivo monitoring of adverse events on the skin; settings: for skin lesions on the injected area: subcutaneous, pH 7.4, 0.5-1.5%
Experimental: Injections were repeated 1 more times 3 days after first injection. […] The severity of skin lesion was assessed using the following criteria. The total skin severity score was defined as the sum of the individual scores for each of the following character and length of lesion. Length of lesion is determined by measuring the longest diameter of the largest lesion identified. Measured length should involve the lesion only and not cross over clinically normal skin. The length of lesion involvement within each injected site was scored from 0 to 3, where 0=no involvement; 1=<0.2 cm, 2=0.2˜0.5 cm, 3=>0.5 cm of the length of site affected. The character of lesion was scored from 0 to 3, where 0=no lesion present, 1=excoriation only one or one, small punctate crust (<2 mm), 2=multiple, small punctate crusts or coalescing crust (>2 mm), 3=erosion or ulceration.

[1] = system: inguinal fat pad of obese mouse; assay: In vivo monitoring of bile salts induced fat loss; settings: 1% solutions, 5 times during 2 weeks
3T3-L1 adipocytes = assay: Cell lysis effect by detergent in vitro (MTT assay); format: cell-based; settings: for EC50 (concentration that kills 50% of the cells) / ED50 (% w/v); EC50 values of bile salts required to lysis of adipose cells in vitro: differentiated 3T3-L1 adipocytes; for ED50 (% w/v); EC50 values of bile salts required to lysis of adipose cells in vitro: 1 hour, MTT
Experimental: To induce adipocyte differentiation, 3T3-L1 pre-adipocytes were seeded in 96-well plate (5×10^3 cells/well) and grown until 2 days post-confluence (day 0) and then treated for 2 days with growth media plus MDI (0.5 μM methylisobutylxanthine, 1 μM dexamethasone and 10 ug/ml insulin; all from Sigma-Aldrich Chemical, St. Louis, Mo., USA), followed by 2 days of treatment with the media containing 10 ug/ml insulin alone. Medium was replaced every 2 days for the following 8 days. Differentiated adipocytes in 96 well plate were washed twice with PBS and incubated in various concentrations of bile salts in serum free DMEM. After 1 hour incubation at 37° C., media were changed and 20 μl of MTT solution (5 mg MTT/ml in PBS) was added into each well and incubated for 1 hour at 37° C. The resultant formazan product was dissolved in 100 μl of DMSO/well and cell viability was determined by measuring the optical density at 570 nm (OD570) using a microplate reader.

rat paws [2] = assay: Bile salt-induced paw edema; settings: 4 hours after injection; for severity of edema (paw thickness): concentrations and pHs showing similar tissue lysis effects
Experimental: (§1) Male SD rats (6 weeks old) were purchased from Koatech Co. (Seoul, Korea) and used after 1 week of acclimation. Rats (200˜230 g) were randomly selected and the volume of intact rats paw was measured in all groups using a digital caliper (Bluebird, Seoul, Korea). […] To induce the edema, rats received 100 μl of various bile salts and PBS into the plantar region of the hind foot of rats. Measurements of the paw volume were performed by a caliper immediately before the bile salts injection and 4 hours after injection.

[3] = Stability of bile salts in aqueous solution; settings: for pH in which aqueous solution remained stable: 1% (w/v), 10 mM phosphate buffer, 25° C.; for Solution stability of bile salt: 1% in 10 mM phosphate buffer; for pH stability: summary, Table 4
Experimental: 0.01 g of bile salts (UDCA, DCA, CDCA and CA) were dissolved in 1 ml of phosphate buffer and placed at room temperature for 10 days.

[4] = system: Inguinal fat (subcutaneous fat) pads; assay: Ex vivo fat lysis assay (MTT); format: cell-based, diet induced obese mice; settings: for ED50 (% w/v); EC50 values of bile salts required to lysis of fat tissues ex vivo: fat tissues of high fat diet mice, 10 minutes, MTT; for effect of increased pH of solution on fat lysis activities: pH 6.0 ˜pH 9.0, bile salt at EC50 in pH 7.4; for EC50 fold higher than DCA or CDCA, ex vivo: relative to DCA or CDCA; for fat lysis activities above the pH 9: solutions above the pH 9
Experimental: Inguinal fat (subcutaneous fat) pads were excised from diet induced obese mice and chopped to about the same size. 100 mg tissue samples were transferred to 48 well plates and incubated with 350 μl of various concentrations and pH of DCA, CDCA, CA, and phosphate buffer for 10 minutes. 70 μl of MTT solution (5 mg/ml in PBS) was added into each well and incubated for overnight at 37° C. The solution was removed and precipitated formazan product was dissolved in 300 μl of DMSO. Tissue viability was monitored by measuring the optical density at 570 nm (OD570) using a microplate reader.

tails of female ICR mice = assay: In vivo monitoring of tissue specific effects of bile salts (tail injection); settings: pH 7.4 solution; for skin layers of tails / fat layers of tails: 14 days post-injection; for fat layers of tails: compared to saline
[5] = system: inguinal fat pads of obese mice; assay: Quantitation of in vivo necrotic area (TTC staining) and histology of injected fat pads; settings: for tissue lysis effect with higher concentration: necrotic area, FIGS. 12B and 12C
Experimental: Various concentrations of bile salts (DCA, CDCA, and CA) solutions in 100 μl volume of PBS were injected to the inguinal fat pads of obese mice. Mice were sacrificed at 1 day after the injection. Mouse inguinal fat pads were stained with 2% TTC (Sigma-Aldrich Chemical, St. Louis, Mo., USA) in PBS for 2 hour to identify the non-necrotic and necrotic areas and subsequently immersed in 10% formalin to enhance the contrast. […] The appearance and area of necrotic fat regions were captured and imaged by scanner. The necrotic area of fat pad treated DCA, CDCA, CA, and PBS was calculated by Image J.

rat paws [6] = settings: in vivo
Experimental: as §1

[7] = system: inguinal fat pads of obese mice; design: Inflammation of injection site: key to the marks not given beside the values; settings: mouse, in vivo

Molecule	skin lesions on the injected area (mice skin)	histology of injected area (H & E) [1]	lesions in the administered area of fat tissues [1]	EC50 (concentration that kills 50% of the cells) (3T3-L1 adipocytes) [%]	ED50 (% w/v); EC50 values of bile salts required to lysis of adipose cells in vitro (3T3-L1 adipocytes) [% w/v]	severity of edema (paw thickness) (rat paws [2])	pH in which aqueous solution remained stable [3]	Solution stability of bile salt ([3]; pH 6.5, 25° C.)	Solution stability of bile salt ([3]; pH 6.7, 25° C.)	Solution stability of bile salt ([3]; pH 7.0, 25° C.)	Solution stability of bile salt ([3]; pH 7.2, 25° C.)	Solution stability of bile salt ([3]; pH 7.4, 25° C.)	Solution stability of bile salt ([3]; pH 7.6, 25° C.)	Solution stability of bile salt ([3]; pH 7.8, 25° C.)	Solution stability of bile salt ([3]; pH 8.0, 25° C.)	Solution stability of bile salt ([3]; pH 8.3, 25° C.)	pH stability [3]	EC50 concentrations, ex vivo condition [4] [%]	ED50 (% w/v); EC50 values of bile salts required to lysis of fat tissues ex vivo [4] [% w/v]	effect of increased pH of solution on fat lysis activities [4]	other results
C[C@H](CCC(=O)O)[C@H]1CC[C@H]2[C@@H]3[C@H](O)C[C@@H]4C[C@H](O)CC[C@]4(C)[C@H]3C[C@H](O)[C@]12C [CA, cholate]	significantly less lesions	Fibrotic areas	yellowish lesions	0.42	0.42	very mild	< 7.0	Precipitation	Precipitation	Stable	Stable	Stable	Stable	Stable	Stable	Stable	<7.0	0.0727	0.0727	greatly diminishes the fat lysis activities	skin lesions (mice skin; higher dose (1.5%)): Only small punctate lesions; skin damage score (mice skin; highest dose of CA (1.5%) compared to lowest dose of DCA (0.5%)): lower damage score; skin lesions (mice skin; lower doses): no detectable lesions; viability of adipocyte cells (3T3-L1 adipocytes; up to 2% concentration): showed cell killing; increment of foot thickness relative to the case of DCA (rat paws [2]): less than one-half; EC50 fold higher than DCA or CDCA, ex vivo [4]: 4 fold; fat lysis activities above the pH 9 [4]: mostly lost their fat lysis activities; skin layers of tails (tails of female ICR mice): not severely damaged; fat layers of tails (tails of female ICR mice): disrupted; concentration enough to show similar necrotic effects with DCA and CDCA ([5]; mouse, in vivo): about two fold higher concentration; concentration enough to show similar tissue lysis effect with 1% DCA (pH 8.3) ([5]; mouse, in vivo): 1.5%; necrotic areas at the same concentration ([5]; mouse, in vivo): smaller than DCA or CDCA; concentration showing similar tissue lysis activity with the injection of 1% DCA ([5]; mouse, in vivo, pH 7.4): about 2%
C[C@H](CCC(=O)O)[C@H]1CC[C@H]2[C@@H]3[C@H](O)C[C@@H]4C[C@H](O)CC[C@]4(C)[C@H]3CC[C@]12C [CDCA, chenodeoxycholate]		Fibrotic areas	yellowish lesions	0.060	0.0597	slightly lower symptom		Gelaton	Gelation	Gelation	Precipitation	Stable	Stable	Stable	Stable	Stable	<7.4	0.0180	0.018	greatly diminishes the fat lysis activities	viability of adipocyte cells (3T3-L1 adipocytes; low concentration (below 0.1%)): reduced the viability of adipocyte cells; fat lysis activities above the pH 9 [4]: mostly lost their fat lysis activities; concentration enough to show similar tissue lysis effect with 1% DCA (pH 8.3) ([5]; CA at pH 7.0, CDCA at pH 7.4): 0.6%; concentration showing similar tissue lysis activity with the injection of 1% DCA ([5]; same pH (pH 7.4)): 1%
C[C@H](CCC(=O)O)[C@H]1CC[C@H]2[C@@H]3[C@@H](O)C[C@@H]4C[C@H](O)CC[C@]4(C)[C@H]3CC[C@]12C [UDCA, ursodeoxycholate]				0.25	0.328	slightly lower symptom	< 7.8	Precipitation	Precipitation	Precipitation	Precipitation	Precipitation	Precipitation	Stable	Stable	Stable	<7.8				histological changes in fat pads (H & E) ([5]; 1.5% solution): Infiltration of polymorphonuclear (PMN) cells into the fat pad tissue was observed; tissue lysis effect with higher concentration [5]: did not increased proportionally; inflammation after injection to subcutaneous fat ([5]; one time injection): severe inflammation
deoxycholate [DCA]	severe skin lesions	Fibrotic areas	yellowish lesions	0.051	0.0509	most severe edema phenotype	lower than 8.3	Gelation	Gelation	Gelation	Gelation	Gelation	Gelation	Gelation	Gelation	Stable	<8.3	0.0179	0.0179	do not show greatly decreased fat lysis activity	skin lesions (mice skin; higher concentrations): Large lesions, erosions and ulcers; skin lesions (mice skin; lowest dose (0.5%)): small punctate lesions; viability of adipocyte cells (3T3-L1 adipocytes; low concentration (below 0.1%)): reduced the viability of adipocyte cells; skin layers of tails (tails of female ICR mice): not severely damaged; fat layers of tails (tails of female ICR mice): disrupted; damages of muscles in tails (tails of female ICR mice; same concentration of DCA and CA): prominent; tissue lysis activity at pH 8.3 compared with pH 7.4 ([5]; necrotic area after injection): lower than the activity of DCA preparation in condition of pH 7.4
C[C@H](CCC(=O)O)[C@H]1CC[C@H]2[C@@H]3C[C@H](O)[C@@H]4C[C@H](O)CC[C@]4(C)[C@H]3CC[C@]12C [HDCA, hyodeoxycholate]				0.42	0.249			Gelation	Gelation	Gelation	Gelation	Stable	Stable	Stable	Stable	Stable	<7.4	0.0250	0.0250	greatly diminishes the fat lysis activities	cell killing effect compared to CA (3T3-L1 adipocytes; similar concentration (0˜1%)): slightly higher cell killing effect compared to CA; EC50 fold higher than DCA or CDCA, ex vivo [4]: 1.4 fold; tissue lysis effect with higher concentration [5]: did not increased proportionally; Adverse event: edema (rat paws [6]): ++; severity of edema (paw thickness) (rat paws [6]): slightly lower symptom; Inflammation of injection site [7]: +++; histological changes in fat pads (H & E) [7]: Infiltration of polymorphonuclear (PMN) cells into the fat pad tissue was observed; inflammation after injection to subcutaneous fat [7]: severe inflammation
C[C@H](CCC(=O)NCCS(=O)(=O)O)[C@H]1CC[C@H]2[C@@H]3[C@@H](O)C[C@@H]4C[C@H](O)CC[C@]4(C)[C@H]3CC[C@]12C [TUDCA, taurourosodeoxycholate]																					viability of adipocyte cells (3T3-L1 adipocytes; up to 2% concentration): did not reduce the viability of adipocyte cells
